{"source": "patent US20210113685A1", "about": "“POLYPEPTIDE DRUG AGAINST HEPATITIS B VIRUS PROTEIN” (priority 2011, published 2021)", "key": {"[1]": {"system": "HepG2-X cells", "assay": "Inoculation experiment in nude mice, HepG2-X cells", "type": "in vivo", "protocol": "(§1) Suspended the HepG2-X or HepG2.2.15 cells at exponential phase by treating with trypsin, and counted the number of cells to dilute to 1×10^7 cells/ml with physiological saline, and then store in the ice water. 12 Mice used were 4- to 6-week-old BALB/C females, and were randomly divided into two groups: @Control group, injected 0.2 ml diluted cells to the armpit of left forelimb for each mouse, and only injected 0.5 ml ddH2O (without polypeptide drugs); 0 experimental group (the treatment dose was 10 mg/kg), injected 0.2 ml diluted cells to the armpit of left forelimb for each mouse, and within 7 days after the injection, tumor volume (V=L×W^2×0.5) reached to 100 mm^3. And then, injected the above mentioned polypeptide drugs (dried polypeptide drug solved in 0.5 ml ddH2O) once in two day, total 10 times, and recorded the tumor volume before injection. Within 24 hr after the last dose, weighted the mice, and killed the mice to weight the tumor tissue, anti-tumor rate was calculated as follow: […]"}, "[2]": {"system": "HepG2.2.15 cells", "assay": "Inoculation experiment in nude mice, HepG2.2.15 cells", "type": "in vivo", "protocol": "as §1"}, "[3]": {"system": "L-O2-X cells", "assay": "MTT assay, L-O2-X cells", "type": "cell-based", "details": "synthesized polypeptide 0.1-100 μM, 48 hr", "protocol": "(§2) (1) Plate the cells: suspended the cells at exponential phase (the cells in the above Table 1) in RPMI1640 or DMEM medium with 10% FBS, and plated 4000-5000 cells in a 96-well plate with 100 μl per well; Culture the cells: Within 12 hr for adhesion of cultured cells, different amount of polypeptides plasmids from Step A (0.25 μg, 0.5 μg and 0.75 μg) or different concentrations of synthesized polypeptides from Example 1 (0.1 μM, 1 μM, 10 μM and 100 μM) were transfected with 8 wells for each concentration, and were incubated for 48 hr in the same condition. 0.3 μg pEGFP-C2 plasmids and 1 μg p-Anti-HBxP1 # were cotransfected, and using a fluorescence microscope to check for cells containing the GFP plasmid after 24 hr to make sure the percentage of cells that contain GFP is over 70%;\n(§3) (2) Coloration: added 20 μl MTT solution (5 mg/ml MTT in PBS buffer (pH7.4)) for each well;\n(§4) (3) Incubated for 4 hr, and carefully aspirate off the supernatant from the wells. Added 150 μl DMSO into each well, shaking for 10 min until the crystals dissolved;\n(§5) (4) Comparison: Read in an ELISA reader at 490 nm to measure the absorbance for each well. Results were calculated by using Student's t-test."}, "[4]": {"system": "HepG2.2.15 cells", "assay": "MTT assay, HepG2.2.15 cells", "type": "cell-based", "details": "synthesized polypeptide 0.1-100 μM, 48 hr", "source_text": "(§6) Two cell lines were adopted in the experiment. One is constitutive expression HBx of hepatoma cell HepG2 (stable transfected hepatoma cell HepG2 expressing HBx), and the other one is constitutive expression Hepatitis B virus complete genome of hepatoma cell HepG2.2.15 (stable transfected hepatoma cell HepG2 expressing HBV complete genome). Because HBx functions to activate the transcription factor NF-κB, it is possible to detect the inhibition of HBx at the molecular level by reporter gene-based assays. […]\nas §2, with “70%; […]” for “70%;”\n(§7) (4) Comparison: Read in an ELISA reader at 490 nm to measure the absorbance for each well. […]"}, "[5]": {"system": "HepG2", "assay": "MTT assay, HepG2 cells", "type": "cell-based", "details": "HepG2 (no HBx); synthesized polypeptide 0.1-100 μM, 48 hr", "protocol": "as §2, §3, §4, §5"}, "[6]": {"system": "HepG2-X cells", "assay": "MTT assay, HepG2-X cells", "type": "cell-based", "details": "synthesized polypeptide 0.1-100 μM, 48 hr", "source_text": "as §6\nas §2, with “70%; […]” for “70%;”\nas §7"}, "[7]": {"system": "L-O2", "assay": "MTT assay, L-O2 cells", "type": "cell-based", "details": "L-O2 (no HBx); synthesized polypeptide 0.1-100 μM, 48 hr", "protocol": "as §2, §3, §4, §5"}, "[8]": {"system": "NF-κB promoter (HBx-activated)", "assay": "Dual-luciferase reporter gene analysis (pGL3-NF-κB)", "type": "cell-based", "details": "incubation with synthesized polypeptide 0.1-100 μM, 24 hr", "source_text": "Two cell lines were adopted in the experiment. One is constitutive expression HBx of hepatoma cell HepG2 (stable transfected hepatoma cell HepG2 expressing HBx), and the other one is constitutive expression Hepatitis B virus complete genome of hepatoma cell HepG2.2.15 (stable transfected hepatoma cell HepG2 expressing HBV complete genome). Because HBx functions to activate the transcription factor NF-κB, it is possible to detect the inhibition of HBx at the molecular level by reporter gene-based assays. Due to the role of HBx on promoting the growth and proliferation of hepatoma cells, it can test the effects of the polypeptides on the proliferation of HepG2-X cell and HepG2.2.15 cell by (3-(4,5-dimethylthiazol-2-yl)-2,5-diphenyltetrazolium bromide (MTT).\n(1) Plated the cells at exponential phase (the cells in the above Table 1) at a density 0.75×10^5 cells/ml in a 24-well plate with 500 μl per well. Ideally cells should be 90% confluent prior to transfection;\n(2) Reporter gene vectors containing promoter (pGL3-NF-κB, 0.3 μg, purchased from Yuanhaoping (Tianjin) Biological Technology Co., Ltd) were transfected into cells by using lipofectamine transfection reagent, and Renilla luciferase expressing vectors (pRL-TK, 0.1 μg, purchased from Promega) were transfected as controls. Simultaneously, different amount of polypeptides plasmids from Step A (0.25 μg, 0.5 μg and 0.75 μg) or different concentrations of synthesized polypeptides from Example 1 (0.1 μM, 1 μM, 10 μM and 100 μM) were added, and repeated each concentration in three wells;\n(3) After transfection for 48 hr (or after incubation with artificial synthesized polypeptide Anti-HBxP1 # for 24 hr), washed the cells with PBS for three times;\n(4) Added 100 μl 1× Passive Lysis Buffer (PLB) into transfected cells per well, and lysed the cell at room temperature for 15 min. Transferred the cell lysate to a 1.5 ml Eppendorf (EP) tube;\n(5) Centrifuged at 12,000 rpm for 30 min, and transferred the supernatant to a fresh EP tube;\n(6) Added an aliquot of cell lysate into each EP tube with 100 μl Luciferase Assay Buffer II (LARII), and mixed well;\n(7) Immediately put the EP tubes into a Luminometer (manufactured by Turner Biosystems). Within 10 sec after 2 sec balance, measured the luminescence.\n(8) Added 100 μl fluorescence bleacher. Firefly luciferase was quenched, while Renilla luciferase started to react.\n(9) Measured the luminescence within 10 sec.\nThe relative activity was the ratio of the value of the first luminescence to the value of the second luminescence.\nResults shown are representative of three independent experiments according to Mean±SD, and statistical significance was calculated using Student's t test."}, "[9]": {"assay": "Polypeptide drugs acute toxicity test", "type": "in vivo, Kunming white mice", "details": "1 g/kg tail intravenous injection; observed 24 hr", "protocol": "Control group and experimental group contained 10 Kunming white mice, with 5 females and 5 males, respectively. Experimental group injected Anti-HBxP1 # with the concentration of 1 g/kg ([…] dried polypeptide drug solved in 0.124 ml ddH2O) by tail intravenous injection; control group, injected 0.25 ml ddH2O. Consecutively observed the mice for 24 hr after injection."}}, "note": "Where no end group is shown, it is not given here."}
{"sequence": "GSAVMFSSKERG [Anti-HBxP1 #]", "values": [{"measurement": "growth and proliferation of HepG2-X cells in nude mice", "setting": "[1]; 10 mg/kg, P<0.01", "value": "inhibits"}, {"measurement": "Anti-tumor rate (%)", "setting": "[1]; HepG2-X tumor, 10 mg/kg once in two day, 10 times", "value": 60.22, "unit": "%"}, {"measurement": "Tumor weight (X ± S, g)", "setting": "[1]; HepG2-X tumor, 10 mg/kg once in two day, 10 times, within 24 hr after last dose", "value": "0.37 ± 0.14", "unit": "g"}, {"measurement": "Weight (X ± S, g) After dose", "setting": "[1]; mouse body weight after 10 mg/kg once in two day, 10 times, HepG2-X tumor", "value": "21.08 ± 0.74", "unit": "g"}, {"measurement": "Weight (X ± S, g) Before dose", "setting": "[1]; mouse body weight before dose, HepG2-X tumor, experimental group", "value": "15.75 ± 0.99", "unit": "g"}, {"measurement": "growth and proliferation of HepG2.2.15 cells in nude mice", "setting": "[2]; 10 mg/kg, P<0.01", "value": "inhibits"}, {"measurement": "Anti-tumor rate (%)", "setting": "[2]; HepG2.2.15 tumor, 10 mg/kg once in two day, 10 times", "value": 41.27, "unit": "%"}, {"measurement": "Tumor weight (X ± S, g)", "setting": "[2]; HepG2.2.15 tumor, 10 mg/kg once in two day, 10 times, within 24 hr after last dose", "value": "0.37 ± 0.19", "unit": "g"}, {"measurement": "Weight (X ± S, g) After dose", "setting": "[2]; mouse body weight after 10 mg/kg once in two day, 10 times, HepG2.2.15 tumor", "value": "21.08 ± 0.81", "unit": "g"}, {"measurement": "Weight (X ± S, g) Before dose", "setting": "[2]; mouse body weight before dose, HepG2.2.15 tumor, experimental group", "value": "15.17 ± 1.17", "unit": "g"}, {"measurement": "growth of the hepatoma cells (MTT assay)", "setting": "[3]", "value": "inhibits"}, {"measurement": "growth of the hepatoma cells (MTT assay)", "setting": "[4]", "value": "inhibits"}, {"measurement": "growth of the hepatoma cells (MTT assay)", "setting": "[5]", "value": "no effect"}, {"measurement": "growth of the hepatoma cells (MTT assay)", "setting": "[6]", "value": "inhibits"}, {"measurement": "growth of the hepatoma cells (MTT assay)", "setting": "[7]", "value": "no effect"}, {"measurement": "activity of NF-κB promoter", "setting": "[8]; HepG2 (no HBx)", "value": "no effect"}, {"measurement": "activity of NF-κB promoter", "setting": "[8]; HepG2-X cells", "value": "inhibits"}, {"measurement": "activity of NF-κB promoter", "setting": "[8]; HepG2.2.15 cells", "value": "inhibits"}, {"measurement": "activity of NF-κB promoter", "setting": "[8]; L-O2 (no HBx)", "value": "no effect"}, {"measurement": "activity of NF-κB promoter", "setting": "[8]; L-O2-X cells", "value": "inhibits"}, {"measurement": "behaviors of mice (acute toxicity)", "setting": "[9]", "value": "do not have abnormal behaviors"}, {"measurement": "changes in weight compared with control group (acute toxicity)", "setting": "[9]", "value": "no abnormal changes in weight"}]}
